Measured values as given in patent US10206394B2, “Herbicidal compounds” (Syngenta Participations AG, priority 2014, dated 2019).
Where two headings read alike, the source gives them in different places.

Key:
Assay in all cases: Glasshouse assay for herbicidal activity (pre- and post-emergence), percentage phytotoxicity
Type in all cases: in vivo
[1] = test system: Alopecurus myosuroides (ALOMY); conditions: Alopecurus myosuroides, rate 250 g/ha
Summary of the method: (§1)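 Pot-grown plants treated one day after sowing (pre-emergence) or at about 12 days (post-emergence); glasshouse at 24/18° C (warm) or 20/16° C (cool species) day/night, 16 h light, 65% humidity. Visual % phytotoxicity (0 = none, 100 = total damage) scored at 15 DAA post or 20 DAA pre.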

[2] = test system: Echinochloa crus-galli (ECHCG); conditions: Echinochloa crus-galli, rate 250 g/ha
Summary of the method: as §1

Lolium perenne (LOLPE) = conditions: Lolium perenne, rate 250 g/ha
Summary of the method: as §1

Avena fatua (AVEFA) = conditions: Avena fatua, rate 250 g/ha
Summary of the method: as §1

[3] = post-emergence, 360 h, POST-emergence, visual score 15 DAA (100%=total damage, 0%=no damage), read-out: Post-emergence herbicidal activity (percentage phytotoxicity) ALOMY POST
[4] = pre-emergence, 480 h, PRE-emergence, visual score 20 DAA (100%=total damage, 0%=no damage), read-out: Pre-emergence herbicidal activity (percentage phytotoxicity) ALOMY PRE
[5] = post-emergence, 360 h, POST-emergence, visual score 15 DAA (100%=total damage, 0%=no damage), read-out: Post-emergence herbicidal activity (percentage phytotoxicity) ECHCG POST
[6] = pre-emergence, 480 h, PRE-emergence, visual score 20 DAA (100%=total damage, 0%=no damage), read-out: Pre-emergence herbicidal activity (percentage phytotoxicity) ECHCG PRE
[7] = post-emergence, 360 h, POST-emergence, visual score 15 DAA (100%=total damage, 0%=no damage), read-out: Post-emergence herbicidal activity (percentage phytotoxicity) LOLPE POST
[8] = pre-emergence, 480 h, PRE-emergence, visual score 20 DAA (100%=total damage, 0%=no damage), read-out: Pre-emergence herbicidal activity (percentage phytotoxicity) LOLPE PRE
[9] = post-emergence, 360 h, POST-emergence, visual score 15 DAA (100%=total damage, 0%=no damage), read-out: Post-emergence herbicidal activity (percentage phytotoxicity) AVEFA POST
[10] = pre-emergence, 480 h, PRE-emergence, visual score 20 DAA (100%=total damage, 0%=no damage), read-out: Pre-emergence herbicidal activity (percentage phytotoxicity) AVEFA PRE

Row | Structure (SMILES) | pest or weed control at 250 g/ha [1, 3] | pest or weed control at 250 g/ha [1, 4] | pest or weed control at 250 g/ha [2, 5] | pest or weed control at 250 g/ha [2, 6] | pest or weed control at 250 g/ha (Lolium perenne (LOLPE); [7]) | pest or weed control at 250 g/ha (Lolium perenne (LOLPE); [8]) | pest or weed control at 250 g/ha (Avena fatua (AVEFA); [9]) | pest or weed control at 250 g/ha (Avena fatua (AVEFA); [10])
1 | C=CCNC(=O)CC1CC(=O)C(c2c(C)cc(-n3cc(Cl)cn3)cc2CC)C1=O (stereo not shown) [Compound B236] | 100% | 90% | 100% | 90% | 100% | 90% | 100% | 90%
2 | CCc1cc(-n2cc(Cl)cn2)cc(C)c1C1C(=O)CC(CC(=O)NCC2CC2)C1=O (stereo not shown) [Compound B237] | 100% | 100% | 100% | 90% | 100% | 90% | 100% | 90%
3 | CCc1cc(-n2cc(Cl)cn2)cc(C)c1C1C(=O)CC(CC(=O)N(C)CC)C1=O (stereo not shown) [Compound B238] | 100% | 100% | 100% | 100% | 100% | 100% | 100% | 100%
4 | CCc1cc(-n2cc(Cl)cn2)cc(C)c1C1C(=O)CC(CC(=O)N(C)C(C)(C)C)C1=O (stereo not shown) [Compound B239] | 90% | 100% | 100% | 100% | 100% | 100% | 100% | 90%
5 | C#CCN(C)C(=O)CC1CC(=O)C(c2c(C)cc(-n3cc(Cl)cn3)cc2CC)C1=O (stereo not shown) [Compound B240] | 100% | 100% | 100% | 90% | 100% | 90% | 100% | 90%
6 | C/C=C/c1cc(C)c(C2C(=O)CC(CC(=O)NCc3cccc(Cl)c3)C2=O)c(C)c1 (stereo not shown) [Compound B241] | 80% | 60% | 100% | 70% | 90% | 80% | 100% | 50%
7 | C/C=C/c1cc(C)c(C2C(=O)CC(CC(=O)NCc3cccc(F)c3)C2=O)c(C)c1 (stereo not shown) [Compound B242] | 90% | 0% | 100% | 0% | 100% | 0% | 90% | 0%
8 | C/C=C/c1cc(C)c(C2C(=O)CC(CC(=O)NCc3ccc(OC)cc3)C2=O)c(C)c1 (stereo not shown) [Compound B243] | 80% | 0% | 90% | 0% | 70% | 0% | 50% | 0%
9 | C/C=C/c1cc(C)c(C2C(=O)CC(CC(=O)NCc3ccc(C#N)cc3)C2=O)c(C)c1 (stereo not shown) [Compound B244] | 0% | 0% | 90% | 0% | 60% | 0% | 80% | 0%
10 | C/C=C/c1cc(C)c(C2C(=O)CC(CC(=O)NC(C)C)C2=O)c(C)c1 (stereo not shown) [Compound B245] | 100% | 100% | 100% | 90% | 100% | 90% | 100% | 90%
11 | C=CCNC(=O)CC1CC(=O)C(c2c(C)cc(/C=C/C)cc2C)C1=O (stereo not shown) [Compound B246] | 100% | 60% | 100% | 70% | 100% | 90% | 100% | 50%
